Laboratory results as given in ChEMBL document CHEMBL1201862, “PubChem BioAssay data set” (2004).
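Protocol summary: plate cells (96-well), add compound at 5 concentrations, incubate 48 h, interpolate endpoints linearly. Abbreviation: GI50, concentration required for 50% inhibition of growth.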 Active and inactive are the calls of the source. No stated cut-off is given here; in the data, active = GI50 up to about 1.1 µM and inactive = higher.

What was measured:
Experiment in all cases: growth of human tumour cells (NCI), 48 h
SK-MEL-5 = test system: SK-MEL-5
U-251 = test system: U-251
SK-OV-3 = test system: SK-OV-3
UACC-257 = test system: UACC-257
HCT-116 = test system: HCT-116
SF-539 = test system: SF-539
SF-268 = test system: SF-268
IGROV-1 = test system: IGROV-1
TK-10 = test system: TK-10
OVCAR-8 = test system: OVCAR-8
SR = test system: SR
RPMI-8226 = test system: RPMI-8226
HOP-92 = test system: HOP-92
ACHN = test system: ACHN
OVCAR-5 = test system: OVCAR-5
NCI-H23 = test system: NCI-H23
SK-MEL-2 = test system: SK-MEL-2
NCI-H226 = test system: NCI-H226
A498 = test system: A498
NCI-H460 = test system: NCI-H460

Row | SMILES | GI50 (SK-MEL-5) | GI50 (U-251) | GI50 (SK-OV-3) | GI50 (UACC-257) | GI50 (HCT-116) | GI50 (SF-539) | GI50 (SF-268) | GI50 (IGROV-1) | GI50 (TK-10) | GI50 (OVCAR-8) | GI50 (SR) | GI50 (RPMI-8226) | GI50 (HOP-92) | GI50 (ACHN) | GI50 (OVCAR-5) | GI50 (NCI-H23) | GI50 (SK-MEL-2) | GI50 (NCI-H226) | GI50 (A498) | GI50 (NCI-H460)
1 | C=CS(=O)(=O)CCN1CC1 | > 10 µM (inactive) | > 10 µM (inactive) | > 10 µM (inactive) | > 10 µM (inactive) | > 10 µM (inactive) | > 10 µM (inactive) | > 10 µM (inactive) | > 10 µM (inactive) | > 10 µM (inactive) | > 10 µM (inactive) | > 10 µM (inactive) | > 10 µM (inactive) | > 10 µM (inactive) | > 10 µM (inactive) | > 10 µM (inactive) | > 10 µM (inactive) | – | – | – | –
2 | C=C1C(=O)O[C@@H]2[C@H]3O[C@]3(C)CCC=C(C)CC[C@@H]12 | 17.5 µM (inactive) | 41.6 µM (inactive) | 54.7 µM (inactive) | 14.9 µM (inactive) | 10.3 µM (inactive) | 19 µM (inactive) | 23.7 µM (inactive) | 21.1 µM (inactive) | – | 16.7 µM (inactive) | – | 8.71 µM (inactive) | 13.6 µM (inactive) | – | 34.2 µM (inactive) | 20.2 µM (inactive) | 16.2 µM (inactive) | 20.5 µM (inactive) | 7.05 µM (inactive) | 18.8 µM (inactive)
3 | Nc1ncc2c(n1)-c1ccccc1OC2N1CCCC1 (stereo unspecified) | > 100 µM (inactive) | > 100 µM (inactive) | > 100 µM (inactive) | > 100 µM (inactive) | > 100 µM (inactive) | > 100 µM (inactive) | > 100 µM (inactive) | 80.7 µM (inactive) | > 100 µM (inactive) | > 100 µM (inactive) | > 100 µM (inactive) | > 100 µM (inactive) | 83.9 µM (inactive) | > 100 µM (inactive) | > 100 µM (inactive) | > 100 µM (inactive) | > 100 µM (inactive) | > 100 µM (inactive) | – | > 100 µM (inactive)
4 | COc1cccc(/C=C/C(=O)N2CC(CCl)c3c2cc(N)c2ccccc32)c1 (stereo unspecified) | < 0.01 µM (active) | 0.000344 µM (active) | 0.00371 µM (active) | 0.0193 µM (active) | 0.00109 µM (active) | – | 0.000693 µM (active) | – | 0.00314 µM (active) | 0.00109 µM (active) | – | 0.0507 µM (active) | 0.0993 µM (active) | 0.000264 µM (active) | 0.00804 µM (active) | 0.00065 µM (active) | 0.00834 µM (active) | 0.0137 µM (active) | 0.00665 µM (active) | 0.000115 µM (active)
5 | CCCn1cc2c3c(cccc31)C1C=C(C)CN(C)C1C2 (stereo unspecified) | 11.3 µM (inactive) | 19 µM (inactive) | 37.3 µM (inactive) | 7.69 µM (inactive) | 10.4 µM (inactive) | 25.6 µM (inactive) | 29 µM (inactive) | 27 µM (inactive) | – | 29.7 µM (inactive) | – | 6.61 µM (inactive) | 11.7 µM (inactive) | – | 25.2 µM (inactive) | 25.5 µM (inactive) | 29.1 µM (inactive) | 12.8 µM (inactive) | 13.7 µM (inactive) | 12 µM (inactive)
6 | COc1cccc(C2C(C(=O)O)=C(CO)Oc3cc4c(cc32)OCO4)c1 (stereo unspecified) | > 100 µM (inactive) | > 100 µM (inactive) | > 100 µM (inactive) | – | – | > 100 µM (inactive) | > 100 µM (inactive) | > 100 µM (inactive) | > 100 µM (inactive) | > 100 µM (inactive) | – | > 100 µM (inactive) | > 100 µM (inactive) | > 100 µM (inactive) | – | > 100 µM (inactive) | > 100 µM (inactive) | > 100 µM (inactive) | > 100 µM (inactive) | > 100 µM (inactive)
7 | C=COCCCOc1ccccc1 | > 100 µM (inactive) | > 100 µM (inactive) | – | – | > 100 µM (inactive) | > 100 µM (inactive) | > 100 µM (inactive) | 0.145 µM (active) | > 100 µM (inactive) | > 100 µM (inactive) | > 100 µM (inactive) | > 100 µM (inactive) | – | > 100 µM (inactive) | > 100 µM (inactive) | > 100 µM (inactive) | > 100 µM (inactive) | > 100 µM (inactive) | – | > 100 µM (inactive)
8 | Cc1nc2[nH]ncn2c(=O)c1CCO | > 10 µM (inactive) | > 10 µM (inactive) | > 10 µM (inactive) | – | > 10 µM (inactive) | > 10 µM (inactive) | > 10 µM (inactive) | > 10 µM (inactive) | > 10 µM (inactive) | > 10 µM (inactive) | > 10 µM (inactive) | > 10 µM (inactive) | – | > 10 µM (inactive) | > 10 µM (inactive) | > 10 µM (inactive) | > 10 µM (inactive) | > 10 µM (inactive) | > 10 µM (inactive) | > 10 µM (inactive)
9 | Cc1c(N(Cc2ccccc2)Cc2ccccc2)nc(S(C)(=O)=O)nc1S(C)(=O)=O | 12 µM (inactive) | 2.53 µM (inactive) | 14.4 µM (inactive) | 2.09 µM (inactive) | 1.66 µM (inactive) | 13 µM (inactive) | 1.95 µM (inactive) | 1.74 µM (inactive) | 4.2 µM (inactive) | 1.85 µM (inactive) | 1.58 µM (inactive) | 2.74 µM (inactive) | 3.56 µM (inactive) | 4.68 µM (inactive) | 7.4 µM (inactive) | 1.72 µM (inactive) | 11.9 µM (inactive) | 12.7 µM (inactive) | – | 5.14 µM (inactive)
10 | O=C(Nc1cccc(C(=O)NCCCO)c1)/C(=C/c1ccccc1)NC(=O)c1ccccc1 | > 100 µM (inactive) | > 100 µM (inactive) | > 100 µM (inactive) | > 100 µM (inactive) | > 100 µM (inactive) | > 100 µM (inactive) | > 100 µM (inactive) | > 100 µM (inactive) | > 100 µM (inactive) | > 100 µM (inactive) | – | > 100 µM (inactive) | > 100 µM (inactive) | > 100 µM (inactive) | > 100 µM (inactive) | > 100 µM (inactive) | > 100 µM (inactive) | > 100 µM (inactive) | > 100 µM (inactive) | > 100 µM (inactive)
11 | CN(C)/N=N/c1ccc([N+](=O)[O-])cc1C(N)=O | > 100 µM (inactive) | > 100 µM (inactive) | > 100 µM (inactive) | > 100 µM (inactive) | > 100 µM (inactive) | > 100 µM (inactive) | > 100 µM (inactive) | > 100 µM (inactive) | – | > 100 µM (inactive) | – | > 100 µM (inactive) | > 100 µM (inactive) | – | > 100 µM (inactive) | > 100 µM (inactive) | > 100 µM (inactive) | > 100 µM (inactive) | > 80.9 µM (inactive) | > 100 µM (inactive)
12 | Brc1cccc(Nc2ncnc3sc4c(c23)CCC(Nc2cccc(Br)c2)C4)c1 (stereo unspecified) | > 100 µM (inactive) | > 100 µM (inactive) | > 100 µM (inactive) | > 100 µM (inactive) | > 100 µM (inactive) | – | > 100 µM (inactive) | 71.3 µM (inactive) | > 100 µM (inactive) | > 100 µM (inactive) | – | – | 26.2 µM (inactive) | > 100 µM (inactive) | > 100 µM (inactive) | > 100 µM (inactive) | > 100 µM (inactive) | – | – | > 100 µM (inactive)
13 | CCOc1c(/N=N/c2ccccc2Cl)c(-c2ccccc2)nn1C(=S)S | 21.2 µM (inactive) | 51.1 µM (inactive) | > 100 µM (inactive) | 50.6 µM (inactive) | 28 µM (inactive) | 14.2 µM (inactive) | > 100 µM (inactive) | 42.6 µM (inactive) | 77.6 µM (inactive) | 54 µM (inactive) | 26.5 µM (inactive) | – | 54 µM (inactive) | 48.1 µM (inactive) | 61 µM (inactive) | 30.3 µM (inactive) | 34.8 µM (inactive) | 20.8 µM (inactive) | – | 45.2 µM (inactive)
14 | CC(=O)/N=C1/N(/C=C2\C(=O)Oc3ccccc3C2=O)C(=O)/C(=C/c2ccc(NC(C)=O)cc2)N1C | > 100 µM (inactive) | > 100 µM (inactive) | > 100 µM (inactive) | > 100 µM (inactive) | > 100 µM (inactive) | > 100 µM (inactive) | > 100 µM (inactive) | > 100 µM (inactive) | – | > 100 µM (inactive) | > 100 µM (inactive) | > 100 µM (inactive) | – | > 100 µM (inactive) | > 100 µM (inactive) | > 100 µM (inactive) | > 100 µM (inactive) | > 100 µM (inactive) | > 100 µM (inactive) | > 100 µM (inactive)
15 | O=C(O)/C(=C\c1ccncc1)c1cccc2ccccc12 | > 100 µM (inactive) | > 100 µM (inactive) | > 100 µM (inactive) | 0.145 µM (active) | > 100 µM (inactive) | > 100 µM (inactive) | > 100 µM (inactive) | > 100 µM (inactive) | > 100 µM (inactive) | > 100 µM (inactive) | > 100 µM (inactive) | > 100 µM (inactive) | > 100 µM (inactive) | – | > 100 µM (inactive) | > 100 µM (inactive) | > 100 µM (inactive) | – | – | > 100 µM (inactive)
16 | CN(C)c1ccc(/C=C/C(=O)N[C@@H]2C(=O)N3[C@@H]2SC(C)(C)[C@@H]3C(=O)O)cc1 | > 100 µM (inactive) | > 100 µM (inactive) | – | > 100 µM (inactive) | 58.9 µM (inactive) | > 100 µM (inactive) | > 100 µM (inactive) | – | > 100 µM (inactive) | > 100 µM (inactive) | > 100 µM (inactive) | > 100 µM (inactive) | – | > 100 µM (inactive) | > 100 µM (inactive) | > 100 µM (inactive) | > 100 µM (inactive) | > 100 µM (inactive) | > 100 µM (inactive) | > 100 µM (inactive)
